Assay results: ChEMBL document CHEMBL1140984, “A small molecule inhibitor of alpha4 integrin-dependent cell migration” (Bioorg Med Chem, 2009)
Activity calls are given as the source filed them. The calls are words filed in the database; no cut-off is given here.

Key:
[1] = biological target: Integrin alpha-4 (Homo sapiens) (UniProt P13612); experiment: Inhibition of alpha4 integrin-dependent cell migration in SDF1-alpha-stimulated human U937 cells at 1 or 5 uM after 4.5 hrs; type: cell-based; parameters: scale not given: the % may be the effect or the level left; conditions: U-937
[2] = biological target: Adenosine kinase (Homo sapiens) (UniProt P55263); experiment: Binding affinity to ADK in human Jurkat cells at 100 uM by Western blot analysis; type: cell-based
[3] = biological target: Integrin alpha-4 (Homo sapiens) (UniProt P13612); experiment: Inhibition of alpha4 integrin-dependent cell migration in PMA-stimulated human U937 cells at 1 or 5 uM after 4.5 hrs; type: cell-based; parameters: scale not given: the % may be the effect or the level left; conditions: U-937
[4] = biological target: Integrin alpha-4 (Homo sapiens) (UniProt P13612); experiment: Inhibition of alpha4 integrin-dependent cell migration in PMA-stimulated human Jurkat cells at 1 or 5 uM after 4.5 hrs; type: cell-based; parameters: scale not given: the % may be the effect or the level left
[5] = biological target: Integrin alpha-4 (Homo sapiens) (UniProt P13612); experiment: Inhibition of alpha4 integrin-dependent cell migration in SDF1-alpha-stimulated human Jurkat cells at 1 or 5 uM after 4.5 hrs; type: cell-based; parameters: scale not given: the % may be the effect or the level left
[6] = biological target: Integrin alpha-4 (Homo sapiens) (UniProt P13612); experiment: Inhibition of alpha4 integrin-dependent cell migration in CHO cells expressing alpha4 integrin after 12 hrs by wound healing assay; type: cell-based
[7] = biological target: T1, Gamma-parvin (Homo sapiens) (UniProt Q9HBI0); experiment: Binding affinity to gamma-parvin in human Jurkat cells at 100 uM by Western blot analysis; type: cell-based
T1 sequence (whole entry): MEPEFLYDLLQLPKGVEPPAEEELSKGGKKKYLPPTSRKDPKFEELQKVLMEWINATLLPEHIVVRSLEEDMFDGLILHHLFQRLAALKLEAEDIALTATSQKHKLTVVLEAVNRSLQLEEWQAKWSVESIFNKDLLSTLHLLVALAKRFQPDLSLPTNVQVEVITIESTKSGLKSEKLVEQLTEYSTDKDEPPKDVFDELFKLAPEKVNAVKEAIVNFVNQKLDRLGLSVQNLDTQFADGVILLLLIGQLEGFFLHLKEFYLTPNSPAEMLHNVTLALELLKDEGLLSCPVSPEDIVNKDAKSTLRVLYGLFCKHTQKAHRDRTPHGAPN

[8] = system: Jurkat; experiment: Inhibition of human Jurkat T cell motility after 4.5 hrs by modified Boyden chamber assay; type: functional, cell-based

Integrin alpha-4 (Homo sapiens), sequence (P13612 whole entry): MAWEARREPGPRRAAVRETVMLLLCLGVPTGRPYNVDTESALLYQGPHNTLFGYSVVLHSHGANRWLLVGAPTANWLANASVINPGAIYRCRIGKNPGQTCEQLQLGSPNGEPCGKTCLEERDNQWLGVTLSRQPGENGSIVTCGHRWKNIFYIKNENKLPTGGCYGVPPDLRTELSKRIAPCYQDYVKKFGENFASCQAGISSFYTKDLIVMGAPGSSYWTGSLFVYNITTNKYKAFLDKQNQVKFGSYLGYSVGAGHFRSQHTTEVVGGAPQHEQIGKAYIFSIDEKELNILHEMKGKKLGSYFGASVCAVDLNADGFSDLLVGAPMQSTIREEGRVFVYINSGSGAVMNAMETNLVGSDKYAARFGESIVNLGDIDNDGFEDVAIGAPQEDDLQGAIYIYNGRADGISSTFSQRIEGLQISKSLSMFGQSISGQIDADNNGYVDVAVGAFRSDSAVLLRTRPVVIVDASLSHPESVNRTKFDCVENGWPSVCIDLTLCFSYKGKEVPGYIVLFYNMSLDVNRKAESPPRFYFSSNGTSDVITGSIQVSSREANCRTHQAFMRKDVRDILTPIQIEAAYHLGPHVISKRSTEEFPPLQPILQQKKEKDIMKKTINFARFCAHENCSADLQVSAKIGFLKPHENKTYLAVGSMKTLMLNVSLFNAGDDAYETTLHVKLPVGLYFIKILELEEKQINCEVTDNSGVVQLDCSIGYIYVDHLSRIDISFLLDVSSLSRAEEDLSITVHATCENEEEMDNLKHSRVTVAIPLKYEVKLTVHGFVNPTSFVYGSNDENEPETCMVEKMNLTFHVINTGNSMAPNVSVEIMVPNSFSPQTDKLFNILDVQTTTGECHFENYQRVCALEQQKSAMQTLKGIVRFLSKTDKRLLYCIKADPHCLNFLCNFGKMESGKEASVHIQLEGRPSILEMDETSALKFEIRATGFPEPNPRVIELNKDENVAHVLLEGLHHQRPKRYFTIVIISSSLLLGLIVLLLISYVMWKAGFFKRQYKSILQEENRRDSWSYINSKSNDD
Adenosine kinase (Homo sapiens), sequence (P55263 2-362 limits assumed): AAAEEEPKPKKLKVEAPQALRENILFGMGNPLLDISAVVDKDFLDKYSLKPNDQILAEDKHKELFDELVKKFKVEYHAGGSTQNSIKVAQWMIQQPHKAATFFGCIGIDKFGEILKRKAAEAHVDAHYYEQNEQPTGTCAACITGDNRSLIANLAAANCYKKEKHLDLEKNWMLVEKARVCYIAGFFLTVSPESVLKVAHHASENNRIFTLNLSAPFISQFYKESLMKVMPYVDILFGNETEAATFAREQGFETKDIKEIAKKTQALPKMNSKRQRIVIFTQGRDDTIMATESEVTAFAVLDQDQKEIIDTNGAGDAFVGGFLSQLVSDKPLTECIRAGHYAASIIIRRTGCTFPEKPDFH

Activity [1]: 40%
Activity [2]: Active
Activity [3]: 40%
Activity [4]: 40%
Activity [5]: 40%
Activity [6]: Dose-dependent effect
Activity [7]: Active
IC50 [8]: 500 nM
Structure (SMILES): Nc1ccc(-c2cc3c(Nc4cccc(Cl)c4)ncnc3[nH]2)cc1
